Results as given in patent US5162339A, “Quinuclidine therapeutic agents” (Pfizer Inc., priority 1990, dated 1992).

How the values were obtained:
[1] = tested on: carrageenin-induced rat foot edema; experiment: carrageenin-induced rat foot edema test; assay type: in vivo; details: for % Inhibition at 32 mg./kg. (inhibition of edema formation): rats, 32 mg./kg. orally (by gavage), compared to vehicle control
From the text: (§1) Such conditions include gastrointestinal disorders such as ulcer and colitis and other like diseases of the gastrointestinal tract, central nervous system disorders such as anxiety and psychosis, inflammatory diseases such as rheumatoid arthritis and inflammatory bowel diseases, respiratory diseases such as asthma, as well as pain in any of the aforesaid conditions, including migraine. […] A. Winter et al., Proceedings of the Society of Experimental Biology and Medicine, Vol. 111, p.
In this test, anti-inflammatory activity is determined as the percent inhibition of edema formation in the hind par of male albino rats (weighing 150-190 g.) in response to a sub-plantar injection of carrageenin. The carrageenin is injected as a 1% aqueous solution. Edema formation is then assessed by measuring the volume of the injected paw initially as well as three hours after the carrageenin injection. The increase in volume three hours after carrageenin injection constitutes the individual response. Compounds are considered active if the difference in response between the drug-treated animals (six rats/group) and a control group receiving the vehicle alone is significant on comparison with the results afforded by a standard compound like phenylbutazone at 33 mg./kg., via the oral route of administration.
The following cis-[(cyclic)methylamino]-2-benzhydrylquinuclidine final products of Examples 2, 3 and 4, respectively, were tested for anti-inflammatory activity in rats, using the standard rat foot edema test, according to the general procedure described by C. A. Winter et al., as first reported in the Proceedings of the Society for Experimental Biology and Medicine, Vol. 111, p. 544 (1962).

[2] = tested on: substance P-induced locomotion; experiment: suppression of substance P-induced hypermotility (locomotion) in rats; assay type: in vivo, rat; details: 32 mg./kg. dose level, intraperitoneal route
From the text: as §1
The anti-psychotic activity of the compounds of the present invention as neuroleptic agents for the control of various psychotic disorders is determined primarily by a study of their ability to suppress substance P-induced hypermotility in rats. This study is carried out by first dosing the rats with a control compound or with an appropriate test compound of the present invention, then injecting the rats with substance P by intracerebral administration via canula and thereafter measuring their individual locomotor response to said stimuli.

COc1ccccc1CN[C@H]1C2CCN(CC2)[C@H]1C(c1ccccc1)c1ccccc1 (relative stereo) [Example 4, cis-3-[(2-methoxyphenyl)methylamino]-2-benzhydrylquinuclidine]
% Inhibition at 32 mg./kg. (inhibition of edema formation) [1]: 38%

Clc1ccccc1CN[C@H]1C2CCN(CC2)[C@H]1C(c1ccccc1)c1ccccc1 (relative stereo) [Example 2, cis-3-[(2-chlorophenyl)methylamino]-2-benzhydrylquinuclidine]
inhibition in swelling ([1]; rat, 100 mg./kg. dose level, oral route): 50%
% Inhibition at 32 mg./kg. (inhibition of edema formation) [1]: 29%
inhibition of substance P-induced locomotion [2]: 50%

FC(F)(F)c1ccccc1CN[C@H]1C2CCN(CC2)[C@H]1C(c1ccccc1)c1ccccc1 (relative stereo) [Example 3, cis-3-[(2-trifluorophenyl)methylamino]-2-benzhydrylquinuclidine]
% Inhibition at 32 mg./kg. (inhibition of edema formation) [1]: 50%
